The results in this text go back to patent US10669284B2, “Fused thiazolopyrimidine derivatives as MNKS inhibitors” (LIFEARC, priority 2015, dated 2020).

SMILES strings stand for the structures.

The test system of assay [1] is phosphorylation of eIF4E at ser209 in MV4.11 cell line. In words: MNK cellular activity phospho-eIF4E detection assay (Alphascreen Surefire). The format is cell-based. The settings on record: Homo sapiens; MV4.11 cell line, phospho-eIF4E (ser209) Alphascreen Surefire; read-out: P(IC50) elF4E (converted). A digest of the protocol:
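AlphaScreen SureFire sandwich-immunoassay readout of phospho-eIF4E Ser209 in lysed MV4.11 cells; acceptor then donor beads, each 1.5 hr at room temperature. Signal normalised to untreated DMSO-only controls; duplicate curves, values averaged over at least 2 independent experiments.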

Assay [2] addresses T1, Full-length human MNK1 (Homo sapiens, UniProt Q9BUB5, T385D).
T1 construct: GST (N); purchased Carna Biosciences 02-145; host or cells: baculovirus expression system
Kind of assay: MNK1 biochemical IC50 assay (Caliper Mobility Shift Assay). The settings on record: read-out: P(IC50) MNK1 (converted).

Assay [3] concerns the target T2, Full-length human MNK2 (Homo sapiens, UniProt Q9HBH9, T379D).
T2 construct: GST (N); purchased Carna Biosciences 02-146; host or cells: baculovirus expression system
Kind of assay: MNK2 biochemical IC50 assay (Caliper Mobility Shift Assay). The settings on record: read-out: P(IC50) MNK2 (converted).

T2 sequence (Q9HBH9 whole entry T379D): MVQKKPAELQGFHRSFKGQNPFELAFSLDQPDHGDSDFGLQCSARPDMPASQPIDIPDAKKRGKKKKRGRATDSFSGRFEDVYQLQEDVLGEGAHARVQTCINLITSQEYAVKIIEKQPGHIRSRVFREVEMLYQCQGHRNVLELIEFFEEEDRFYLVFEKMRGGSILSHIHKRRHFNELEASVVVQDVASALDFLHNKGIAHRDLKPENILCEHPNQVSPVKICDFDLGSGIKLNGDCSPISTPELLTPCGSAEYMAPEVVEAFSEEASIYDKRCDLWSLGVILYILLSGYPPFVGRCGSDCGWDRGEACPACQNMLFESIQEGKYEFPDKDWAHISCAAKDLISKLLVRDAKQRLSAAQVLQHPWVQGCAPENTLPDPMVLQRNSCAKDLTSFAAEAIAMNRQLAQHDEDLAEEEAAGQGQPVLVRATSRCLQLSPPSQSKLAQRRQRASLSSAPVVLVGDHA
T1 sequence (Q9BUB5 1-424 isoform Q9BUB5-2 T344D): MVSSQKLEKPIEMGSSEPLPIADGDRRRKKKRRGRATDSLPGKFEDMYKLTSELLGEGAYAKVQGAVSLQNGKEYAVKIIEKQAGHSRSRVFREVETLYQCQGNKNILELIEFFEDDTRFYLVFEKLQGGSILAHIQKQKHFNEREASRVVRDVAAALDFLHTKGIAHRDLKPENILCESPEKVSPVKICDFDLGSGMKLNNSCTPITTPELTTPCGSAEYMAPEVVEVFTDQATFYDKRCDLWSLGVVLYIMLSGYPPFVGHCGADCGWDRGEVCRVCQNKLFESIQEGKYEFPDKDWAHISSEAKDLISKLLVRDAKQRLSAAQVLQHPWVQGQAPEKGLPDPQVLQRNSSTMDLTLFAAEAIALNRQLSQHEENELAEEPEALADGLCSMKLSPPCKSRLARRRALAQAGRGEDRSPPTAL

The IC50 is the point on the concentration scale where inhibition reaches its midpoint. On to `CC1CN(c2ncnc3sc(C(=O)NC4CCN(C)CC4)nc23)c2ccccc21` (stereo not drawn) [Example 126, 7-(3-Methylindolin-1-yl)-N-(1-methyl-4-piperidyl)thiazolo[5,4-d]pyrimidine-2-carboxamide], for which the IC50 in assay [1] was 3.98 nM; in assay [2], 3.98 nM; in assay [3] it was 6.31 nM.
Turning to `O=C(NC1CCNCC1)c1nc2c(N3CCc4ccccc43)ncnc2s1` [Example 98, 7-indolin-1-yl-N-(4-piperidyl)thiazolo[5,4-d]pyrimidine-2-carboxamide], the IC50 is 3.98 nM in assay [1], 3.16 nM in assay [2] and 3.98 nM in assay [3].
Take `CC1CN(c2ncnc3sc(C(=O)NCC4CCNCC4)nc23)c2ccccc21` (stereo not drawn) [Example 146]: the 50% inhibitory concentration (IC50) in assay [1] is 5.01 nM; in assay [2], 6.31 nM; in assay [3], 7.94 nM.
The matching figures for `CNCCCNC(=O)c1nc2c(N3c4ccccc4C[C@H]3C)ncnc2s1` [Example 128, N-[3-(methylamino)propyl]-7-[(2R)-2-methylindolin-1-yl]thiazolo[5,4-d]pyrimidine-2-carboxamide]: 79.4 nM, 20 nM and 12.6 nM.
For `O=C(Nc1nc2c(N3CCc4cc(F)ccc43)ncnc2s1)C1CCOC1` (stereo not drawn) [Example 84, N-(7-(5-Fluoroindolin-1-yl)thiazolo[5,4-d]pyrimidin-2-yl)tetrahydrofuran-3-carboxamide], the IC50 in assay [1] is 50.1 nM; in assay [2], 3.98 nM; in assay [3], 5.01 nM.
For the compound `O=C(NCC1CCNCC1)c1nc2c(N3CCc4cc(C(F)(F)F)ccc43)ncnc2s1` [Example 145], the IC50 is 501 nM in assay [1], 126 nM in assay [2] and 100 nM in assay [3].
In the case of `O=C(NC1CCOCC1)c1nc2c(N3CC4(CC4)c4cc(F)ccc43)ncnc2s1` [Example 107, 7-(5′-fluorospiro[cyclopropane-1,3′-indoline]-1′-yl)-N-tetrahydropyran-4-yl-thiazolo[5,4-d]pyrimidine-2-carboxamide], the figures for the half-inhibitory concentration (IC50) in assay [1], in assay [2] and in assay [3] were 2 nM, 1.58 nM and 3.16 nM, respectively.
Take `CC(C)Oc1c(F)cccc1Nc1ncnc2sc(C(=O)NCCCN(C)C)nc12` [Example 18, N-[3-(dimethylamino)propyl]-7-(3-fluoro-2-isopropoxy-anilino)thiazolo[5,4-d]pyrimidine-2-carboxamide]: the IC50 was 39.8 nM in assay [1], 50.1 nM in assay [2] and 50.1 nM in assay [3].
In the case of `CC(C)(O)CC1CN(c2ncnc3sc(C(=O)NCC4CCNCC4)nc23)c2ccc(F)cc21` (stereo not drawn) [Example 143], the IC50 in assay [1] was 5.01 nM; in assay [2] it was 7.94 nM; in assay [3] it was 6.31 nM.
For the compound `CC(C)Oc1cc(F)ccc1Nc1ncnc2sc(C(=O)NC3CCNCC3)nc12` [Example 31, 7-{[4-Fluoro-2-(propan-2-yloxy)phenyl]amino}-N-(piperidin-4-yl)[1,3]thiazolo[5,4-d]pyrimidine-2-carboxamide], the IC50 in assay [1] is 50.1 nM; in assay [2], 63.1 nM; in assay [3] it was 50.1 nM.
`CN1CCN(c2nc3c(N4CCc5cc(F)ccc54)ncnc3s2)CC1` [Example 88, 7-(5-fluoroindolin-1-yl)-2-(4-methylpiperazin-1-yl)thiazolo[5,4-d]pyrimidine]: the values for the IC50 in assay [1], in assay [2] and in assay [3] were 251 nM, 79.4 nM and 50.1 nM, respectively.
Take `CC(C)Oc1cc(F)ccc1Nc1ncnc2sc(CO)nc12` [Example 48, [7-(4-Fluoro-2-isopropoxy-anilino)thiazolo[5,4-d]pyrimidin-2-yl]methanol]: the IC50 in assay [1] was 20 nM; in assay [2], 63.1 nM; in assay [3], 39.8 nM.
Regarding `CNCCCNC(=O)c1nc2c(N3CC(C)(C)c4ccccc43)ncnc2s1` [Example 159], the IC50 was 5.01 nM in assay [1], 5.01 nM in assay [2] and 3.16 nM in assay [3].
With `CN(C)CCNC(=O)c1nc2c(N3CCc4cc(F)ccc43)ncnc2s1` [Example 73, N-[2-(dimethylamino)ethyl]-7-(5-fluoroindolin-1-yl)thiazolo[5,4-d]pyrimidine-2-carboxamide], the results for the 50% inhibitory concentration (IC50) in assay [1], in assay [2] and in assay [3] were 15.8 nM, 5.01 nM and 5.01 nM, respectively.
For the compound `CN(C)CCCNC(=O)c1nc2c(Nc3ccc(F)cc3O[C@H]3CCCC[C@@H]3O)ncnc2s1` [Example 19, N-[3-(dimethylamino)propyl]-7-[4-fluoro-2-[(1S,2S)-2-hydroxycyclohexoxy]anilino]thiazolo[5,4-d]pyrimidine-2-carboxamide], the half-maximal inhibitory concentration (IC50) in assay [1] was 251 nM; in assay [2], 794 nM; in assay [3], 794 nM.
Consider `CC(C)Oc1cc(F)ccc1Nc1ncnc2sc(C(=O)NC3CCN(C)CC3)nc12` [Example 32, 7-{[4-fluoro-2-(propan-2-yloxy)phenyl]amino}-N-(1-methylpiperidin-4-yl)[1,3]thiazolo[5,4-d]pyrimidine-2-carboxamide], for which the half-inhibitory concentration (IC50) in assay [1] is 39.8 nM; in assay [2], 50.1 nM; in assay [3], 39.8 nM.
On to `CC1(C)CN(c2ncnc3sc(C(=O)NCCCO)nc23)c2ccccc21` [Example 163], for which the IC50 was 5.01 nM in assay [1], 10 nM in assay [2] and 3.98 nM in assay [3].
Regarding `CO[C@@H]1CCC[C@H](Oc2cc(F)ccc2Nc2ncnc3sc(C(=O)NCC4CCNCC4)nc23)C1` [Example 61, 7-[4-fluoro-2-[(1S,3R)-3-methoxycyclohexoxy]anilino]-N-(4-piperidylmethyl)thiazolo[5,4-d]pyrimidine-2-carboxamide], the values for the IC50 in assay [1], in assay [2] and in assay [3] were 79.4 nM, 100 nM and 126 nM, respectively.
The matching figures for `CC(C)Oc1cc(F)ccc1Nc1ncnc2sc(C(=O)NC3CCOCC3)nc12` [Example 33, 7-{[4-fluoro-2-(propan-2-yloxy)phenyl]amino}-N-(tetrahydro-2H-pyran-4-yl)[1,3]thiazolo[5,4-d]pyrimidine-2-carboxamide]: 79.4 nM, 100 nM and 79.4 nM.
`O=C(NCC1CCNCC1)c1nc2c(N3CCOc4cc(F)ccc43)ncnc2s1` [Example 56, 7-(7-fluoro-2,3-dihydro-1,4-benzoxazin-4-yl)-N-(4-piperidylmethyl)thiazolo[5,4-d]pyrimidine-2-carboxamide]: the half-maximal inhibitory concentration (IC50) in assay [1] is 794 nM; in assay [2], 1000 nM; in assay [3], 794 nM.
With `CC1(C)CN(c2ncnc3sc(C(=O)NC4CCOCC4)nc23)c2ccc(F)cc21` [Example 105, 7-(5-Fluoro-3,3-dimethyl-indolin-1-yl)-N-tetrahydropyran-4-yl-thiazolo[5,4-d]pyrimidine-2-carboxamide], the IC50 is 2.51 nM in assay [1], 2 nM in assay [2] and 3.16 nM in assay [3].
Consider `CC(C)Oc1cc(F)ccc1Nc1ncnc2sc(C(=O)N3CC4(CNC4)C3)nc12` [Example 7, 2,6-diazaspiro[3.3]heptan-2-yl-[7-(4-fluoro-2-isopropoxy-anilino)thiazolo[5,4-d]pyrimidin-2-yl]methanone], for which the IC50 in assay [1] is 316 nM; in assay [2], 251 nM; in assay [3], 251 nM.
Consider `CC(C)Oc1cc(F)ccc1Nc1ncnc2sc(C(=O)NC3CC4CCC(C3)N4)nc12` (stereo not drawn) [Example 5, N-(8-azabicyclo[3.2.1]octan-3-yl)-7-(4-fluoro-2-isopropoxy-anilino)thiazolo[5,4-d]pyrimidine-2-carboxamide], for which the IC50 in assay [1] is 100 nM; in assay [2] it was 158 nM; in assay [3], 79.4 nM.
The matching figures for `CCOc1cc(F)ccc1Nc1ncnc2sc(C(=O)NCC3CCNCC3)nc12` [Example 53, 7-(2-ethoxy-4-fluoro-anilino)-4-(4-piperidylmethyl)thiazolo[5,4-d]pyrimidine-2-carboxamide]: 126 nM, 100 nM and 126 nM.
As to `CN(C)CCCNC(=O)c1nc2c(Nc3ccc(F)cc3OC3CCCC3)ncnc2s1` [Example 22, 7-[2-(Cyclopentoxy)-4-fluoro-anilino]-N-[3-(dimethylamino)propyl]thiazolo[5,4-d]pyrimidine-2-carboxamide], the IC50 is 63.1 nM in assay [1], 100 nM in assay [2] and 63.1 nM in assay [3].
For `CC(C)(O)c1nc2c(N3CCc4cc(F)ccc43)ncnc2s1` [Example 82, 2-[7-(5-Fluoroindolin-1-yl)thiazolo[5,4-d]pyrimidin-2-yl]propan-2-ol], the results for the half-maximal inhibitory concentration (IC50) in assay [1], in assay [2] and in assay [3] were 158 nM, 31.6 nM and 31.6 nM, respectively.
On to `COc1ccc2c(c1)CCN2c1ncnc2sc(C(=O)NCC3CCNCC3)nc12` [Example 63, 7-(5-methoxyindolin-1-yl)-N-(4-piperidylmethyl)thiazolo[5,4-d]pyrimidine-2-carboxamide], for which the IC50 in assay [1] is 39.8 nM; in assay [2], 79.4 nM; in assay [3] it was 63.1 nM.
For `CN(C)CCNc1nc2c(N3CCc4cc(F)ccc43)ncnc2s1` [Example 86], the half-maximal inhibitory concentration (IC50) in assay [1] was 251 nM; in assay [2], 63.1 nM; in assay [3], 79.4 nM.
With `O=C(NC1CCOCC1)c1nc2c(N3CC(CO)c4ccccc43)ncnc2s1` (stereo not drawn) [Example 109, 7-[3-(hydroxymethyl)indolin-1-yl]-N-tetrahydropyran-4-yl-thiazolo[5,4-d]pyrimidine-2-carboxamide], the values for the IC50 in assay [1], in assay [2] and in assay [3] were 12.6 nM, 12.6 nM and 7.94 nM, respectively.
